Measured values published in PubChem BioAssay (NCI).
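All cell lines were grown in 96-well plates and treated with compound for 48 hours. TGI denotes the concentration required for complete inhibition of growth.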

How the values were obtained:
Experiment in all cases: DTP human tumour cell line panel, 48 h
786-0 renal = system: 786-0 renal
A498 renal = system: A498 renal
A549 NSCLC = system: A549 NSCLC
ACHN renal = system: ACHN renal
BT-549 breast = system: BT-549 breast
CAKI-1 renal = system: CAKI-1 renal
CCRF-CEM leukemia = system: CCRF-CEM leukemia
COLO 205 colon = system: COLO 205 colon
DU-145 prostate = system: DU-145 prostate
EKVX NSCLC = system: EKVX NSCLC
HCC-2998 colon = system: HCC-2998 colon
HCT-116 colon = system: HCT-116 colon
HCT-15 colon = system: HCT-15 colon
HL-60(TB) leukemia = system: HL-60(TB) leukemia
HOP-62 NSCLC = system: HOP-62 NSCLC
HOP-92 NSCLC = system: HOP-92 NSCLC
HS 578T breast = system: HS 578T breast
HT29 colon = system: HT29 colon
IGROV1 ovarian = system: IGROV1 ovarian
K-562 leukemia = system: K-562 leukemia
KM12 colon = system: KM12 colon
LOX IMVI melanoma = system: LOX IMVI melanoma
M14 melanoma = system: M14 melanoma
MALME-3M melanoma = system: MALME-3M melanoma
MCF7 breast = system: MCF7 breast
MDA-MB-231 breast = system: MDA-MB-231 breast
MDA-MB-435 = system: MDA-MB-435
MDA-N = system: MDA-N
MOLT-4 leukemia = system: MOLT-4 leukemia
NCI-H226 lung = system: NCI-H226 lung
NCI-H23 lung = system: NCI-H23 lung
NCI-H460 lung = system: NCI-H460 lung
NCI-H522 lung = system: NCI-H522 lung
NCI/ADR-RES ovarian = system: NCI/ADR-RES ovarian
OVCAR-3 ovarian = system: OVCAR-3 ovarian
OVCAR-4 ovarian = system: OVCAR-4 ovarian
OVCAR-5 ovarian = system: OVCAR-5 ovarian
OVCAR-8 ovarian = system: OVCAR-8 ovarian
PC-3 prostate = system: PC-3 prostate
RPMI-8226 leukemia = system: RPMI-8226 leukemia
SF-268 CNS = system: SF-268 CNS
SF-295 CNS = system: SF-295 CNS
SF-539 CNS = system: SF-539 CNS
SK-MEL-2 melanoma = system: SK-MEL-2 melanoma
SK-MEL-28 melanoma = system: SK-MEL-28 melanoma
SK-MEL-5 melanoma = system: SK-MEL-5 melanoma
SK-OV-3 ovarian = system: SK-OV-3 ovarian
SN12C renal = system: SN12C renal
SNB-19 CNS = system: SNB-19 CNS
SNB-75 CNS = system: SNB-75 CNS
SR leukemia = system: SR leukemia
SW-620 colon = system: SW-620 colon
T-47D breast = system: T-47D breast
TK-10 renal = system: TK-10 renal
U251 CNS = system: U251 CNS
UACC-257 melanoma = system: UACC-257 melanoma
UACC-62 melanoma = system: UACC-62 melanoma
UO-31 renal = system: UO-31 renal

CN(C)CCCN1c2ccccc2CCc2cccc([N+](=O)[O-])c21 gave a TGI (786-0 renal) of 28.6 µM, a TGI (A498 renal) of 37.2 µM and a TGI (A549 NSCLC) of over 100 µM. It also gave a TGI (ACHN renal) of 53.6 µM, a TGI (BT-549 breast) of 61 µM and a TGI (CAKI-1 renal) of 48.4 µM. The TGI (CCRF-CEM leukemia) was 14.7 µM, the TGI (COLO 205 colon) was 33.9 µM and the TGI (DU-145 prostate) was 32.3 µM. The TGI (EKVX NSCLC) was over 100 µM, the TGI (HCC-2998 colon) was 31.5 µM and the TGI (HCT-116 colon) was 28.9 µM. It also gave a TGI (HCT-15 colon) of 29.6 µM, a TGI (HL-60(TB) leukemia) of 30.1 µM and a TGI (HOP-62 NSCLC) of 30 µM. For the same compound, the TGI (HOP-92 NSCLC) was 45.5 µM, the TGI (HS 578T breast) was 70.5 µM and the TGI (HT29 colon) was 29.7 µM. The TGI (IGROV1 ovarian) was 32.3 µM, the TGI (K-562 leukemia) was 29.1 µM and the TGI (KM12 colon) was 30.9 µM. It also gave a TGI (LOX IMVI melanoma) of 30.2 µM, a TGI (M14 melanoma) of 29.2 µM and a TGI (MALME-3M melanoma) of 32.5 µM. It also gave a TGI (MCF7 breast) of 30.7 µM, a TGI (MDA-MB-231 breast) of 47.6 µM and a TGI (MDA-MB-435) of 30.3 µM. It also gave a TGI (MDA-N) of 29.7 µM, a TGI (MOLT-4 leukemia) of 29.8 µM and a TGI (NCI-H226 lung) of 69.5 µM. It also gave a TGI (NCI-H23 lung) of over 100 µM, a TGI (NCI-H460 lung) of 32.1 µM and a TGI (NCI-H522 lung) of 30.6 µM. It also gave a TGI (NCI/ADR-RES ovarian) of 32.9 µM, a TGI (OVCAR-3 ovarian) of 29.8 µM and a TGI (OVCAR-4 ovarian) of 45.2 µM. The TGI (OVCAR-5 ovarian) was over 100 µM, the TGI (OVCAR-8 ovarian) was 29.3 µM and the TGI (PC-3 prostate) was 34.5 µM. It also gave a TGI (RPMI-8226 leukemia) of 23.8 µM, a TGI (SF-268 CNS) of 64.5 µM and a TGI (SF-295 CNS) of 30.1 µM. It also gave a TGI (SF-539 CNS) of 31.6 µM, a TGI (SK-MEL-2 melanoma) of 65.6 µM and a TGI (SK-MEL-28 melanoma) of 26.1 µM. For the same compound, the TGI (SK-MEL-5 melanoma) was 30 µM, the TGI (SK-OV-3 ovarian) was 85.9 µM and the TGI (SN12C renal) was 52.9 µM. It also gave a TGI (SNB-19 CNS) of over 100 µM, a TGI (SNB-75 CNS) of 24.4 µM and a TGI (SR leukemia) of 28.5 µM. The TGI (SW-620 colon) was 36 µM, the TGI (T-47D breast) was 27.8 µM and the TGI (TK-10 renal) was 37.2 µM. The TGI (U251 CNS) was 32.9 µM, the TGI (UACC-257 melanoma) was 34.7 µM and the TGI (UACC-62 melanoma) was 36.2 µM. It also gave a TGI (UO-31 renal) of 41.7 µM.
In the case of Cc1ccc2c(c1)C(=O)c1[nH]c3ccc(F)cc3c1CO2, the TGI (786-0 renal) is reported as over 100 µM, the TGI (A498 renal) is reported as over 100 µM and the TGI (A549 NSCLC) is reported as over 100 µM. For the same compound, the TGI (ACHN renal) was over 100 µM, the TGI (BT-549 breast) was over 100 µM and the TGI (CAKI-1 renal) was over 100 µM. The TGI (CCRF-CEM leukemia) was over 100 µM, the TGI (COLO 205 colon) was over 100 µM and the TGI (DU-145 prostate) was over 100 µM. It also gave a TGI (EKVX NSCLC) of over 100 µM, a TGI (HCC-2998 colon) of over 100 µM and a TGI (HCT-116 colon) of over 100 µM. For the same compound, the TGI (HCT-15 colon) was over 100 µM, the TGI (HL-60(TB) leukemia) was over 100 µM and the TGI (HOP-62 NSCLC) was 36 µM. The TGI (HOP-92 NSCLC) was over 100 µM, the TGI (HS 578T breast) was 58.1 µM and the TGI (HT29 colon) was over 100 µM. For the same compound, the TGI (IGROV1 ovarian) was over 100 µM, the TGI (K-562 leukemia) was over 100 µM and the TGI (KM12 colon) was over 100 µM. The TGI (LOX IMVI melanoma) was over 100 µM, the TGI (M14 melanoma) was over 100 µM and the TGI (MALME-3M melanoma) was over 100 µM. The TGI (MCF7 breast) was over 100 µM, the TGI (MDA-MB-231 breast) was over 100 µM and the TGI (MDA-MB-435) was over 100 µM. For the same compound, the TGI (MDA-N) was over 100 µM, the TGI (MOLT-4 leukemia) was over 100 µM and the TGI (NCI-H226 lung) was over 100 µM. The TGI (NCI-H23 lung) was over 100 µM, the TGI (NCI-H460 lung) was over 100 µM and the TGI (NCI-H522 lung) was over 100 µM. It also gave a TGI (NCI/ADR-RES ovarian) of over 100 µM, a TGI (OVCAR-3 ovarian) of over 100 µM and a TGI (OVCAR-4 ovarian) of 88.8 µM. For the same compound, the TGI (OVCAR-5 ovarian) was over 100 µM, the TGI (OVCAR-8 ovarian) was 62.2 µM and the TGI (PC-3 prostate) was over 100 µM. It also gave a TGI (RPMI-8226 leukemia) of over 100 µM, a TGI (SF-268 CNS) of over 100 µM and a TGI (SF-295 CNS) of 31.6 µM. For the same compound, the TGI (SF-539 CNS) was 49.8 µM, the TGI (SK-MEL-2 melanoma) was 40.6 µM and the TGI (SK-MEL-28 melanoma) was over 100 µM. It also gave a TGI (SK-MEL-5 melanoma) of over 100 µM, a TGI (SK-OV-3 ovarian) of 43 µM and a TGI (SN12C renal) of over 100 µM. For the same compound, the TGI (SNB-19 CNS) was 46.8 µM, the TGI (SNB-75 CNS) was 40.4 µM and the TGI (SR leukemia) was over 100 µM. For the same compound, the TGI (SW-620 colon) was over 100 µM, the TGI (T-47D breast) was over 100 µM and the TGI (TK-10 renal) was 92.6 µM. The TGI (U251 CNS) was 50.2 µM, the TGI (UACC-257 melanoma) was over 100 µM and the TGI (UACC-62 melanoma) was 98.2 µM. For the same compound, the TGI (UO-31 renal) was over 100 µM.
